Consider nine compounds from ChEMBL document CHEMBL1155023, “C-geranylated chalcones from the stems of Angelica keiskei with superoxide-scavenging activity” (J Nat Prod, 2008).

A word on the IC50: it is the concentration that gives 50% inhibition.

A short description of this test: Superoxide-scavenging activity assessed as inhibition of formation of WST1 formazan.
Regarding `C=C(C)C(O)CCC(C)(O)[C@H]1Oc2ccc(C(=O)/C=C/c3ccc(O)cc3)c(O)c2[C@@H]1O` (relative stereo) [XANTHOKEISMINS C], the half-inhibitory concentration (IC50) was 1100 nM.
`O=C1O[C@H]([C@@H](O)CO)C(O)=C1O` [ASCORBIC ACID]: the IC50 is greater than 40000 nM.
With `CC(C)=CCC/C(C)=C/CC/C(C)=C/CO` [FARNESOL], the IC50 is greater than 40000 nM.
Consider `O=C(/C=C/c1ccc(O)cc1)c1ccc(O)cc1O` [ISOLIQUIRITIGENIN], for which the IC50 stood at 15000 nM.
Regarding `Oc1ccc(/C=C/c2cc(O)cc(O)c2)cc1` [RESVERATROL], the concentration for half-maximal inhibition (IC50) is 5300 nM.
For the compound `C=C(C)C(O)CC/C(C)=C/Cc1c(O)ccc(C(=O)/C=C/c2ccc(O)cc2)c1O` (centres undefined) [XANTHOANGELOL B], the half-inhibitory concentration (IC50) is 920 nM.
As to `CC(C)=CCC/C(C)=C/Cc1c(O)ccc(C(=O)/C=C/c2ccc(O)cc2)c1O` [XANTHOANGELOL], the IC50 was greater than 40000 nM.
`C/C(=C\Cc1c(O)ccc(C(=O)/C=C/c2ccc(O)cc2)c1O)C/C=C/C(C)(C)O` [XANTHOKEISMINS A]: the IC50 was 510 nM.
Next, `CC(C)(O)/C=C/CC(C)(O)[C@H]1Oc2ccc(C(=O)/C=C/c3ccc(O)cc3)c(O)c2[C@@H]1O` (some centres undefined) [XANTHOKEISMINS B]: 690 nM.
